The results in this text go back to patent publication US20160130278A1 (TAISHO PHARMACEUTICAL CO., LTD, priority 2013, published 2016).

The structures appear in SMILES notation.

For orientation: IC50 means the concentration that inhibits the measured activity by half. A high value points to weaker potency.

For the experiment, the target named is T1, human type 1 glycine transporter (GlyT1) (Homo sapiens, UniProt P48067).
T1 construct: T98G cells (glioma cells) expressing human type 1 glycine transporter (GlyT1) were used
T1 sequence (P48067 1-706): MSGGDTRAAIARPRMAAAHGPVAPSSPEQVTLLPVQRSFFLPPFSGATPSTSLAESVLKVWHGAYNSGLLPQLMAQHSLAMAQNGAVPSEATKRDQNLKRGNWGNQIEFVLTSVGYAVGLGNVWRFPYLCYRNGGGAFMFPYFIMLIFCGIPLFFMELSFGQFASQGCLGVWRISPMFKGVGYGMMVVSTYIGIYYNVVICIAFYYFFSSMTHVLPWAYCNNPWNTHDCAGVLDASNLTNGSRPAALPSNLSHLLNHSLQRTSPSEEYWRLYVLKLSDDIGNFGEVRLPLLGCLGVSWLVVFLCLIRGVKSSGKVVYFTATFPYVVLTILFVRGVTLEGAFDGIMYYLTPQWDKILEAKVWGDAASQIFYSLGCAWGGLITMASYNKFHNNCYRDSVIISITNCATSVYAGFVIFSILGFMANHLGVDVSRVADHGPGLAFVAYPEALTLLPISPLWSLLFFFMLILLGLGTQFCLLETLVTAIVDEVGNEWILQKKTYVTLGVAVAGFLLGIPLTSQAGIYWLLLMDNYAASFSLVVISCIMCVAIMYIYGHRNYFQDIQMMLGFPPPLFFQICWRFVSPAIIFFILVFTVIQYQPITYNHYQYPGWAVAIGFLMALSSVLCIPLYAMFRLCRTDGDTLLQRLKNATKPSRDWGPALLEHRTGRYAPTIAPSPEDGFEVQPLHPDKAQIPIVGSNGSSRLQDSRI
The experiment can be described thus: Glycine uptake inhibition experiment ([3H]glycine uptake). The format is cell-based. The note with it: GlyT1. Put shortly:
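T98G glioma cells expressing human GlyT1 were pretreated 10 min with compound in HEPES buffer pH 7.4 (0.2% BSA), then incubated with compound plus 250 nM final [3H]glycine for 15 min at room temperature. Intracellular radioactivity was counted after NaOH lysis; 10 μM ALX5407 defined non-specific uptake. IC50 came from 10^−9–10^−5 M curves.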
As for `Cc1ccccc1C(NC(=O)c1nccc(C(F)(F)F)c1Cl)C1(O)CCCC1` (stereo not shown) [Compound 47, 3-chloro-N-[(1-hydroxycyclopentyl)(2-methylphenyl)methyl]-4-(trifluoromethyl)pyridine-2-carboxamide], half-maximal inhibition (IC50) was put at 280 nM.
Take `Cc1cccc(C(NC(=O)c2nccc(C(F)(F)F)c2Cl)C2(O)CCCC2)c1` (stereo not shown) [Compound 48, 3-chloro-N-[(1-hydroxycyclopentyl)(3-methylphenyl)methyl]-4-(trifluoromethyl)pyridine-2-carboxamide]: it took 670 nM to reach half-maximal inhibition (IC50).
The compound `Cc1ccc(C(NC(=O)c2nccc(C(F)(F)F)c2Cl)C2(O)CCCC2)cc1` (stereo not shown) [Compound 49, 3-chloro-N-[(1-hydroxycyclopentyl)(4-methylphenyl)methyl]-4-(trifluoromethyl)pyridine-2-carboxamide] gave an IC50 of 3800 nM. This IC50 is about 5.7-fold higher than that of the compound before.
The result for `COc1ccccc1C(NC(=O)c1nccc(C(F)(F)F)c1Cl)C1(O)CCCC1` (stereo not shown) [Compound 50, 3-chloro-N-[(1-hydroxycyclopentyl)(2-methoxyphenyl)methyl]-4-(trifluoromethyl)pyridine-2-carboxamide] reads 540 nM.
In turn, `COc1cccc(C(NC(=O)c2nccc(C(F)(F)F)c2Cl)C2(O)CCCC2)c1` (stereo not shown) [Compound 51, 3-chloro-N-[(1-hydroxycyclopentyl)(3-methoxyphenyl)methyl]-4-(trifluoromethyl)pyridine-2-carboxamide] showed a concentration for half-maximal inhibition (IC50) of 370 nM.
`O=C(NC(c1cccc(F)c1)C1(O)CCC1)c1nccc(C(F)(F)F)c1Cl` (stereo not shown) [Compound 62, 3-chloro-N-[(3-fluorophenyl)(1-hydroxycyclobutyl)methyl]-4-(trifluoromethyl)pyridine-2-carboxamide] showed an IC50 of 2100 nM.
Take `O=C(NC(c1cccc(F)c1)C1(O)CCCCC1)c1nccc(C(F)(F)F)c1Cl` (stereo not shown) [Compound 63, 3-chloro-N-[(3-fluorophenyl)(1-hydroxycyclohexyl)methyl]-4-(trifluoromethyl)pyridine-2-carboxamide]: the IC50 was 57 nM.
Consider `O=C(N[C@@H](c1cccc(Br)c1)C1(O)CCCC1)c1cccc(C(F)(F)F)c1Cl` [Compound 64, N-[(S)-(3-bromophenyl)(1-hydroxycyclopentyl)methyl]-2-chloro-3-(trifluoromethyl)benzamide], for which the concentration for half-maximal inhibition (IC50) is 75 nM.
For the compound `O=C(NC(c1cccc(F)c1)C1(O)CCCC1)c1cccc(C(F)(F)F)c1Cl` (stereo not shown) [Compound 65, 2-chloro-N-[(3-fluorophenyl)(1-hydroxycyclopentyl)methyl]-3-(trifluoromethyl)benzamide], the 50% inhibitory concentration (IC50) amounted to 270 nM.
The result for `O=C(N[C@@H](c1cccc(Br)c1)C1(O)CCCC1)c1nccc(C(F)(F)F)c1-n1cccn1` [Compound 69, N-[(S)-(3-bromophenyl)(1-hydroxycyclopentyl)methyl]-3-(1H-pyrazol-1-yl)-4-(trifluoromethyl)pyridine-2-carboxamide] reads 1400 nM.
Compound `O=C(N[C@@H](c1cccc(Br)c1)C1(O)CCCC1)c1nccc(C(F)(F)F)c1-n1nccn1` [Compound 70, N-[(S)-(3-bromophenyl)(1-hydroxycyclopentyl)methyl]-3-(2H-1,2,3-triazol-2-yl)-4-(trifluoromethyl)pyridine-2-carboxamide] had an IC50 of 1200 nM.
Under `O=C(N[C@@H](c1cccc(Br)c1)C1(O)CCCC1)c1nccc(C(F)(F)F)c1-n1ccnn1` [Compound 71, N-[(S)-(3-bromophenyl)(1-hydroxycyclopentyl)methyl]-3-(1H-1,2,3-triazol-1-yl)-4-(trifluoromethyl)pyridine-2-carboxamide] stands 5700 nM; under `CCn1cc(-c2cccc([C@H](NC(=O)c3cccc(C(F)(F)F)c3Cl)C3(O)CCCC3)c2)cn1` [Compound 74, 2-chloro-N-[(S)-[3-(1-ethyl-1H-pyrazol-4-yl)phenyl](1-hydroxycyclopentyl)methyl]-3-(trifluoromethyl)benzamide], 43 nM.
